Data from patent US8426447B2, “Spiro-tricyclic ring compounds as beta-secretase modulators and methods of use” (Amgen Inc., priority 2008, dated 2013).
pIC50: −log10 of the molar value.

Tests used:
BACE1 [1] = target: T1, BACE1 (Homo sapiens, UniProt P56817); assay: In Vitro Enzymatic BACE FRET (Fluorescence Resonance Energy Transfer) Assay; assay type: biochemical; details: read-out: BACE1 FRET assay; for IC50: Table III, IC50's in uM ranges; for pIC50: Table 1
Method: In Vitro Enzymatic BACE FRET (Fluorescence Resonance Energy Transfer) Assay (Enzyme Assay Data in the Example Tables I, II, III & IV) The assay buffer used in this screen is 0.05 M acetate, pH 4.2, 10% DMSO final, 100 uM genapol (which is a nonionic detergent, below its Critical Micelle Concentration). […] This assay is effectively started by the addition of FRET substrate (50 nM) and the combination is incubated for one hour. The FRET assay is terminated with by addition of Tris buffer, which raises the pH to neutrality, and the fluorescence is determined. The FRET substrate is a peptide with commercially available fluorophore and quencher, on opposite sides of the BACE cleavage site. […]

BACE1 [2] = target: T1, BACE1; assay: In Vitro BACE Cell-based Assay (HEK cell assay): Aβ40 in conditioned medium of cells stably expressing Amyloid Precursor Protein, sandwich ELISA; details: read-out: HEK cell assay; for IC50: Table III, IC50's in uM ranges; for pIC50: Table 1, Aβ40, 24 h incubation
Method: In Vitro BACE Cell-based Assay
The cell-based assay measures inhibition or reduction of Aβ40 in conditioned medium of test compound treated cells expressing amyloid precursor protein.
Cells stably expressing Amyloid Precursor Protein (APP) were plated at a density of 40K cells/well in 96 well plates (Costar). The cells were cultivated for 24 hours at 37° C. and 5% CO2 in DMEM supplemented with 10% FBS. The test compounds were then added to cells in 10-point dose response concentrations with the starting concentration being either 100 μM or 10 μM. The compounds were diluted from stock solutions in DMSO and the final DMSO concentration of the test compounds on cells was 0.1%. After 24 h of incubation with the test compounds the supernatant conditioned media was collected and the Aβ 40 levels were determined using a sandwich ELISA. The IC50 of the compound was calculated from the percent of control or percent inhibition of Aβ 40 as a function of the concentration of the test compound.
The sandwich ELISA to detect Aβ 40 was performed in 96 well microtiter plates, which were pre-treated with goat anti-rabbit IgG (Pierce). The capture and detecting antibody pair that were used to detect Aβ 40 from cell supernatants were affinity purified pAb40 (Biosource) and biotinylated 6E10 (Signet Labs Inc.), respectively. The optimal concentration for the pAb40 antibody was 3 μg/ml in Superblock/TBS (Pierce) that was supplemented with 0.05% Tween 20 (Sigma).
Cellular supernatants were incubated with the capture antibody for 3 h at 4° C., followed by 3 wash steps in TBS-tween (0.05%). The detecting antibody incubation was for 2 h at 4° C., again followed by the wash steps as described previously. The final readout of the ELISA is Time-Resolved Fluorescence (counts per minute) using Delfia reagents Streptavidin-Europium and Enhancement solutions (Perkin Elmer) and the Victor 2 multilabel counter (Perkin Elmer).

T1 sequence (P56817 46-501, species assumed): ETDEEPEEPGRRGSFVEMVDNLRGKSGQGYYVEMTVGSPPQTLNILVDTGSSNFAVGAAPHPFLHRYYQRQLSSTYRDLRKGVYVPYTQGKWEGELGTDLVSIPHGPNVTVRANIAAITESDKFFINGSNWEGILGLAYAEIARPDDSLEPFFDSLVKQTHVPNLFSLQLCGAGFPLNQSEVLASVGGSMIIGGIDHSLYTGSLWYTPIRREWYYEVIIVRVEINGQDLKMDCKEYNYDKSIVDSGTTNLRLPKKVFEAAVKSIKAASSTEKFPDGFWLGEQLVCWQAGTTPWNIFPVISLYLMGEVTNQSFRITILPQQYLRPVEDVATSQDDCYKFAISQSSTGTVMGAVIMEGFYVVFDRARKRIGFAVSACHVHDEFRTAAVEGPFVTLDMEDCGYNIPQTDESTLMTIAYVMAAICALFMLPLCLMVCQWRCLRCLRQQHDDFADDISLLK

IC50 (BACE1 [1])	IC50 (BACE1 [2])	pIC50 (BACE1 [1])	pIC50 (BACE1 [2])	SMILES
< 0.1 µM	0.1 to 1 µM			CC(C)(C)CCc1ccc2c(c1)[C@@]1(COC(N)=N1)c1cc(-c3ccc(F)nc3)ccc1O2 [153a]
< 0.1 µM	0.1 to 1 µM			CC(C)(C)CCc1ccc2c(c1)[C@]1(COC(N)=N1)c1cc(-c3ccc(F)nc3)ccc1O2 [153b]
> 5 µM	> 5 µM			COc1cc2c(cc1F)Oc1ccc(-c3cncnc3)cc1[C@]21COC(N)=N1 [154a]
< 0.1 µM	0.1 to 1 µM			COc1cc2c(cc1F)Oc1ccc(-c3cncnc3)cc1[C@@]21COC(N)=N1 [154b]
< 0.1 µM	0.1 to 1 µM			CC(C)(C)COc1ccc2c(c1)[C@@]1(COC(N)=N1)c1cc(-c3cncnc3)cc(F)c1O2 [155a]
< 0.1 µM	0.1 to 1 µM			CC(C)(C)COc1ccc2c(c1)[C@]1(COC(N)=N1)c1cc(-c3cncnc3)cc(F)c1O2 [155b]
< 0.1 µM	< 0.1 µM			COCC#Cc1ccc2c(c1)[C@]1(COC(N)=N1)c1cc(-c3cncnc3)ccc1O2 [156a]
0.1 to 1 µM	0.1 to 1 µM			COCC#Cc1ccc2c(c1)[C@@]1(COC(N)=N1)c1cc(-c3cncnc3)ccc1O2 [156b]
0.1 to 1 µM	0.1 to 1 µM			CC(C)(C)CC(O)c1ccc2c(c1)[C@]1(COC(N)=N1)c1cc(-c3ccc(F)nc3)ccc1O2 (some centres unmarked) [162a]
0.1 to 1 µM	0.1 to 1 µM			CC(C)(C)CC(O)c1ccc2c(c1)[C@@]1(COC(N)=N1)c1cc(-c3ccc(F)nc3)ccc1O2 (some centres unmarked) [162b]
< 0.1 µM	0.1 to 1 µM			CC(C)(C)CCc1ccc2c(c1)[C@]1(COC(N)=N1)c1cc(-c3cccnc3)cnc1O2 [182b]
0.1 to 1 µM	1 to 5 µM			CC(C)(C)C#Cc1cnc2c(c1)[C@@]1(COC(N)=N1)c1cc(-c3cccnc3)ccc1O2 [185a]
0.1 to 1 µM	0.1 to 1 µM			COC(C)(C)C#Cc1ccc2c(c1)[C@@]1(COC(N)=N1)c1cc(-c3cccnc3)cnc1O2 [208a]
< 0.1 µM	< 0.1 µM			COC(C)(C)C#Cc1ccc2c(c1)[C@]1(COC(N)=N1)c1cc(-c3cccnc3)cnc1O2 [208b]
0.1 to 1 µM	1 to 5 µM			CC(C)(C)COc1ccc2c(c1)[C@@]1(COC(N)=N1)c1cc(C(=O)N3CCCC3)ccc1O2 [218a]
0.1 to 1 µM	0.1 to 1 µM			CC(C)(C)COc1ccc2c(c1)[C@]1(COC(N)=N1)c1cc(C(=O)N3CCCC3)ccc1O2 [218b]
		> 7.00	> 7.00	CCCOc1ccc2c(c1)[C@]1(COC(N)=N1)c1cc(-c3cncnc3)ccc1O2 [Example 5, (4S)-2′-propoxy-7′-(5-pyrimidinyl)spiro[1,3-oxazole-4,9′-xanthen]-2-amine]

IC50 (BACE1 [1])	IC50 (BACE1 [2])	pIC50 (BACE1 [1])	pIC50 (BACE1 [2])	SMILES
		> 7.00	6.00 to 7.00	CCCOc1ccc2c(c1)C1(COC(N)=N1)c1cc(-c3cncnc3)ccc1O2 (centres unmarked) [Example 9, 2′-propoxy-7′-(5-pyrimidinyl)spiro[1,3-oxazole-4,9′-xanthen]-2-amine]
		6.00 to 7.00	5.30 to 6.00	COc1ccc2c(c1)[C@]1(COC(N)=N1)c1cc(-c3cncnc3)ccc1O2 [Example 10, (4S)-2′-methoxy-7′-(5-pyrimidinyl)spiro[1,3-oxazole-4,9′-xanthen]-2-amine]
		6.00 to 7.00	5.30 to 6.00	CCCOc1ccc2c(c1)[C@@]1(COC(N)=N1)c1cc(-c3cncnc3)ccc1O2 [Example 11, (4R)-2′-propoxy-7′-(5-pyrimidinyl)spiro[1,3-oxazole-4,9′-xanthen]-2-amine]
		6.00 to 7.00	< 5.30	COc1ccc2c(c1)[C@]1(COC(N)=N1)c1cc(-c3cc(Cl)ccc3F)ccc1O2 [Example 12, (4S)-2′-(5-chloro-2-fluorophenyl)-7′-methoxyspiro[1,3-oxazole-4,9′-xanthen]-2-amine trifluoroacetic acid]
		6.00 to 7.00	5.30 to 6.00	COc1ccc2c(c1)C1(COC(N)=N1)c1cc(-c3cncnc3)ccc1O2 (centres unmarked) [Example 14, 2′-methoxy-7′-(5-pyrimidinyl)spiro[1,3-oxazole-4,9′-xanthen]-2-amine]
		5.30 to 6.00	< 5.30	COc1ccc(F)c(-c2ccc3c(c2)C2(COC(N)=N2)c2cc(OC)ccc2O3)c1 (centres unmarked) [Example 15, 2′-(2-fluoro-5-methoxyphenyl)-7′-methoxyspiro[1,3-oxazole-4,9′-xanthen]-2-amine]
		5.30 to 6.00	5.30 to 6.00	COc1ccc2c(c1)C1(COC(N)=N1)c1cc(-c3cccnc3F)ccc1O2 (centres unmarked) [Example 16, 2′-(2-fluoro-3-pyridinyl)-7′-methoxyspiro[1,3-oxazole-4,9′-xanthen]-2-amine]
		5.30 to 6.00	5.30 to 6.00	COc1ccc2c(c1)C1(COC(N)=N1)c1cc(-c3cccc(OC)c3F)ccc1O2 (centres unmarked) [Example 17, 2′-(2-fluoro-3-methoxyphenyl)-7′-methoxyspiro[1,3-oxazole-4,9′-xanthen]-2-amine]
		5.30 to 6.00	< 5.30	COc1ccc2c(c1)C1(COC(N)=N1)c1cc(-c3cccc(Cl)c3F)ccc1O2 (centres unmarked) [Example 18, 2′-(3-chloro-2-fluorophenyl)-7′-methoxyspiro[1,3-oxazole-4,9′-xanthen]-2-amine]
		5.30 to 6.00	6.00 to 7.00	COc1ccc(F)c(-c2ccc3c(c2)C2(COC(N)=N2)c2ccc(C)cc2O3)c1 (centres unmarked) [Example 19, 2′-(2-fluoro-5-methoxyphenyl)-6′-methylspiro[1,3-oxazole-4,9′-xanthen]-2-amine]
		5.30 to 6.00	< 5.30	COc1ccc2c(c1)C1(COC(N)=N1)c1cc(-c3cccc(C)c3)ccc1O2 (centres unmarked) [Example 20, 2′-methoxy-7′-(3-methylphenyl)spiro[1,3-oxazole-4,9′-xanthen]-2-amine]
		5.30 to 6.00	< 5.30	COc1ccc2c(c1)C1(COC(N)=N1)c1cc(-c3cccnc3Cl)ccc1O2 (centres unmarked) [Example 21, 2′-(2-chloro-3-pyridinyl)-7′-methoxyspiro[1,3-oxazole-4,9′-xanthen]-2-amine trifluoroacetic acid]
		5.30 to 6.00	5.30 to 6.00	COc1ccc2c(c1)C1(COC(N)=N1)c1cc(-c3cccc(OC(F)(F)F)c3)ccc1O2 (centres unmarked) [Example 22, 2′-methoxy-7′-(3-(trifluoromethoxy)phenyl)spiro[1,3-oxazole-4,9′-xanthen]-2-amine]
		5.30 to 6.00	< 5.30	COc1ccc2c(c1)C1(COC(N)=N1)c1cc(-c3cc(Cl)c(C)cc3F)ccc1O2 (centres unmarked) [Example 23, 2′-(5-chloro-2-fluoro-4-methylphenyl)-7′-methoxyspiro[1,3-oxazole-4,9′-xanthen]-2-amine]
		< 5.30	5.30 to 6.00	Cc1ccc2c(c1)Oc1ccc(-c3cccc(OC(F)(F)F)c3)cc1[C@]21COC(N)=N1 [Example 24, (4S)-6′-methyl-2′-(3-(trifluoromethoxy)phenyl)spiro[1,3-oxazole-4,9′-xanthen]-2-amine]
		< 5.30	5.30 to 6.00	Cc1ccc2c(c1)Oc1ccc(-c3cccc(Cl)c3)cc1C21COC(N)=N1 (centres unmarked) [Example 25, 2′-(3-chlorophenyl)-6′-methylspiro[1,3-oxazole-4,9′-xanthen]-2-amine]
		< 5.30	5.30 to 6.00	Cc1ccc2c(c1)Oc1ccc(-c3cccc(Cl)c3F)cc1C21COC(N)=N1 (centres unmarked) [Example 26, 2′-(3-chloro-2-fluorophenyl)-6′-methylspiro[1,3-oxazole-4,9′-xanthen]-2-amine]
